Laboratory results from patent US20220040072A1, “Reduction of Pathogenic Bacteria Using Arginine” (Colgate-Palmolive Company, priority 2018, published 2022).

Legend:
[1] = system: Fusobacterium nucieatum; experiment: Dual species competitive biofilm assay (qPCR); format: cell-based, Fusobacterium nucleatum; conditions: 25 μmol/ml arginine, negative value = reduction of pathogen
Description: (§1) The impact of arginine in a dual-species biofilm was assessed by co-culturing one beneficial bacterial species with on pathogenic microbe in media containing 25 micromol/ml of arginine. The total beneficial-to-pathogen load in the results biofilms were determined via qPCR using DNA probes.
(§2) Using a competitive biofilm assay, the role of arginine as a selective nutrient was assessed using a dual species biofilm model (Table 2).

[2] = system: S. gordonii; experiment: Single species growth in media supplemented with arginine (optical density 630 nm); format: cell-based, Streptococcus gordonii; conditions: 10-25 micromol/ml arginine; vs reference control set to 1; OD 630 nm at 24 and 48 hours
Description: (§3) To assess the impact of the amino acid arginine on beneficial oral bacteria and on pathogenic oral bacteria, representative bacterial species were cultured in media supplemented with 5, 10, 20, and 25 micromol/ml of arginine using a 96-well polystyrene microtiter plate. The bacterial cultures were incubated under anaerobic conditions or an environment containing 5% carbon dioxide, monitoring growth at 24 and 48 hours through optical density at a wavelength of 630 nm.
(§4) *Single species growth and biofilm formation stimulated by arginine in comparison to the reference control which was set to a value of 1 (p<0.05). Cut-off values were set to a factor of 1.2 for growth (upper 5% of all data), and 1.45 for biofilm formation (upper 20% of all data). Aa: Aggregatibacter actinomycetemcomitans, Fn: Fusobacterium nucleatum, Ssob: Streptococcus sobrinus, Avisc: Actinomyces viscosus, Ssal: Streptococcus salivarius, Smitis: Streptococcus mitis, Ssang: Streptococcus sanguinis, Sgord: Streptococcus gordonii, Soralis: Streptococcus oralis.

[3] = system: S. sanguinis; experiment: as above; format: cell-based, Streptococcus sanguinis; conditions: 10-25 micromol/ml arginine; vs reference control set to 1; OD 630 nm at 24 and 48 hours
Description: as §3, §4

[4] = system: A. actinomycetemcomitans biofilms; experiment: Total biofilm growth in the presence of arginine (crystal violet staining); format: cell-based, Aggregatibacter actinomycetemcomitans; conditions: vs no substrate control
Excerpt: as §4
(§5) Total biofilm growth in the presence of arginine was assessed through crystal violet staining. An increase of 1.2-fold or greater over the no substrate control was considered significant as calculated using a Student's t-test (p<0.05).

[5] = system: Prevotella intermedia; experiment: Dual species competitive biofilm assay (qPCR); format: cell-based; conditions: 25 μmol/ml arginine, negative value = reduction of pathogen
Description: as §1, §2

[6] = system: Porphyromonas gingivalis; experiment: Dual species competitive biofilm assay (qPCR); format: cell-based; conditions: 25 μmol/ml arginine, negative value = reduction of pathogen
Description: as §1, §2

[7] = system: Aggregatibacter actinomycetemcomitans; experiment: Dual species competitive biofilm assay (qPCR); format: cell-based; conditions: 25 μmol/ml arginine, negative value = reduction of pathogen
Description: as §1, §2

[8] = system: Streptococcus sobrinus; experiment: Dual species competitive biofilm assay (qPCR); format: cell-based; conditions: 25 μmol/ml arginine, negative value = reduction of pathogen
Description: as §1, §2

[9] = system: Streptococcus mutans; experiment: Dual species competitive biofilm assay (qPCR); format: cell-based; conditions: 25 μmol/ml arginine, negative value = reduction of pathogen
Description: as §1, §2

[10] = system: beneficial bacteria; experiment: Dual species competitive biofilm assay (qPCR); format: cell-based; conditions: 25 micromol/ml arginine; co-cultured with one pathogenic microbe
Description: as §1, §2

[11] = system: pathogenic and beneficial microbes; experiment: Total biofilm growth in the presence of arginine (crystal violet staining); format: cell-based; conditions: vs no substrate control, species other than A. actinomycetemcomitans
Excerpt: as §4, §5

[12] = system: pathogenic bacteria; experiment: Single species growth in media supplemented with arginine (optical density 630 nm); format: cell-based; conditions: 5, 10, 20, 25 micromol/ml arginine; OD 630 nm at 24 and 48 hours
Description: as §3, §4

[13] = system: A. viscosus; experiment: as above; format: cell-based, Actinomyces viscosus; conditions: 10-25 micromol/ml arginine; vs reference control set to 1; OD 630 nm at 24 and 48 hours
Description: as §3, §4

[14] = co-cultured with Actinomyces viscosus
[15] = co-cultured with Streptoccoccus salivarius
[16] = co-cultured with Streptococcus gordonii
[17] = co-cultured with Streptococcus mitis
[18] = co-cultured with Streptococcus oralis
[19] = co-cultured with Streptococcus sanguinis

N=C(N)NCCC[C@H](N)C(=O)O [arginine]
Proportional reduction of pathogenic species in a dual species biofilm post-Arginine treatment [1, 14]: 13.35% | Proportional reduction of pathogenic species in a dual species biofilm post-Arginine treatment [1, 15]: −28.32% | Proportional reduction of pathogenic species in a dual species biofilm post-Arginine treatment [1, 16]: 474.12% | Proportional reduction of pathogenic species in a dual species biofilm post-Arginine treatment [1, 17]: 209.31% | Proportional reduction of pathogenic species in a dual species biofilm post-Arginine treatment [1, 18]: 101.73% | Proportional reduction of pathogenic species in a dual species biofilm post-Arginine treatment [1, 19]: 112.11% | fold increase of growth [2]: 1.2-1.3 fold | fold increase of growth [3]: 1.2-1.3 fold | biofilm formation [4]: increase | Proportional reduction of pathogenic species in a dual species biofilm post-Arginine treatment [5, 14]: −99.99% | Proportional reduction of pathogenic species in a dual species biofilm post-Arginine treatment [5, 15]: 81.56% | Proportional reduction of pathogenic species in a dual species biofilm post-Arginine treatment [5, 16]: −98.29% | Proportional reduction of pathogenic species in a dual species biofilm post-Arginine treatment [5, 17]: −52.64% | Proportional reduction of pathogenic species in a dual species biofilm post-Arginine treatment [5, 18]: −73.78% | Proportional reduction of pathogenic species in a dual species biofilm post-Arginine treatment [5, 19]: −99.35% | Proportional reduction of pathogenic species in a dual species biofilm post-Arginine treatment [6, 14]: −97.78% | Proportional reduction of pathogenic species in a dual species biofilm post-Arginine treatment [6, 15]: 90.75% | Proportional reduction of pathogenic species in a dual species biofilm post-Arginine treatment [6, 16]: −52.94% | Proportional reduction of pathogenic species in a dual species biofilm post-Arginine treatment [6, 17]: −96.62% | Proportional reduction of pathogenic species in a dual species biofilm post-Arginine treatment [6, 18]: −79.23% | Proportional reduction of pathogenic species in a dual species biofilm post-Arginine treatment [6, 19]: −85.49% | Proportional reduction of pathogenic species in a dual species biofilm post-Arginine treatment [7, 14]: −25.66% | Proportional reduction of pathogenic species in a dual species biofilm post-Arginine treatment [7, 15]: −35.38% | Proportional reduction of pathogenic species in a dual species biofilm post-Arginine treatment [7, 16]: 100.61% | Proportional reduction of pathogenic species in a dual species biofilm post-Arginine treatment [7, 17]: 73.94% | Proportional reduction of pathogenic species in a dual species biofilm post-Arginine treatment [7, 18]: 268.65% | Proportional reduction of pathogenic species in a dual species biofilm post-Arginine treatment [7, 19]: 233.40% | Proportional reduction of pathogenic species in a dual species biofilm post-Arginine treatment [8, 14]: −7.87% | Proportional reduction of pathogenic species in a dual species biofilm post-Arginine treatment [8, 15]: −1.33% | Proportional reduction of pathogenic species in a dual species biofilm post-Arginine treatment [8, 16]: −50.33% | Proportional reduction of pathogenic species in a dual species biofilm post-Arginine treatment [8, 17]: 49.29% | Proportional reduction of pathogenic species in a dual species biofilm post-Arginine treatment [8, 18]: −15.77% | Proportional reduction of pathogenic species in a dual species biofilm post-Arginine treatment [8, 19]: −40.73% | Proportional reduction of pathogenic species in a dual species biofilm post-Arginine treatment [9, 14]: −23.93% | Proportional reduction of pathogenic species in a dual species biofilm post-Arginine treatment [9, 15]: −15.19% | Proportional reduction of pathogenic species in a dual species biofilm post-Arginine treatment [9, 16]: −87.64% | Proportional reduction of pathogenic species in a dual species biofilm post-Arginine treatment [9, 17]: −0.72% | Proportional reduction of pathogenic species in a dual species biofilm post-Arginine treatment [9, 18]: −3.47% | Proportional reduction of pathogenic species in a dual species biofilm post-Arginine treatment [9, 19]: −19.30% | growth of beneficial bacteria in arginine-cultured dual species biofilms [10]: increase | biofilm formation [11]: no significant increase | increase of pathogenic bacteria growth [12]: no significant increase | fold increase of growth [13]: 1.2-1.3 fold
